Data set [1] deals with IL-10. Kind of data set: Liver IL-10 mRNA and protein after N-Mgb, SnPP or both. It is filed as in vivo, mice. Conditions: 18 h after Rx treatment. How it is done: (§1) Thirty-two mice were divided into 4 equal groups: (1) control mice; (2) mice treated with 1 mg of N-Mgb injection (as a bolus through the tail vein); (3) mice treated with […] of SnPP (via tail vein); and (4) mice treated with combined N-Mgb 1 SnPP. After either 4 hours (n=16) or 18 hours (n=16), the mice were deeply anesthetized with pentobarbital (50 mg/kg), the abdomen was opened through a midline abdominal incision, and the kidneys were removed. To determine potential effects on extrarenal organs, a liver lobe and the heart were also removed. The tissues were iced and then extracted for protein and RNA (RNeasy Plus Mini; Qiagen, Valencia, Calif.) and subjected to enzyme linked immunosorbent assay (ELISA) and reverse transcriptase polymerase chain reaction (RT-PCR) for HO-1, haptoglobin, and IL-10 protein and messenger RNAs (mRNAs). Zager et al. J Am Soc Nephrol 2014;25:998-1012; Zager et al. Am J Physiol 2012;303:F139-48. As an assessment of renal function, control mice and the 18 hour after N-Mgb+SnPP—treated mice had blood urea nitrogen (BUN) and plasma creatinine levels measured. Additionally, transverse 10% formalin fixed kidney sections ([…]) were cut and stained with hematoxylin and eosin (H&E) and periodic acid Schiff (PAS) to further assess potential injury.

A further data set has as its system Haptoglobin. Kind of data set: Renal cortical haptoglobin mRNA and protein after N-Mgb, SnPP or both. It is filed as in vivo, mice. Conditions: renal cortex, 4 h after Rx treatment. The method, then:
as §1

Data set [2] concerns Mgb-exposed cultured proximal tubule (HK-2) cells. As to conditions: Zager & Burkhart, Kidney Int 1997; cited from earlier work.
Data set [3] can be described thus: Glycerol model of rhabdomyolysis-induced AKI. It is filed as in vivo, mice. As to conditions: IV pretreatment 18 hours before glycerol; 18 hours after glycerol. The method, then: Assessments of cytoresistance. Glycerol model of rhabdomyolysis-induced AKI. Twenty mice were divided into 4 equal groups (controls, mice treated with N-Mgb, SnPP, and mice treated with N-Mgb+SnPP tail vein injections) as described previously. 18 hours later, the mice were briefly anesthetized with isoflurane and immediately injected with 9 mL/kg of 50% glycerol, administered in equally divided doses into each hind limb. At 18 hours after glycerol injection, the mice were anesthetized with pentobarbital, the abdomen was opened, a blood sample for BUN and creatinine assessments was obtained from the vena cava, and the kidneys were resected. The control post-glycerol group and the N-Mgb+SnPP—pretreated glycerol group had kidney sections stained with H&E.
Calculations and statistics. All values are given as the mean […] standard error of the mean. Statistical comparisons were made by unpaired Student's t test. If multiple comparisons were made, the Bonferroni correction was applied. The severity of renal histologic injury in the glycerol AKI model was graded on a […] (least to most severe tubular necrosis and cast formation observed). The histologic results were compared by Wlcoxon rank sum test. Statistical significance was taken as a P value of <0.05.

For data set [4] the following is noted: Berglund et al.; Kappas et al.; Reddy et al.; cited from earlier work.
For data set [5] the following is noted: Berglund et al. Hepatology 1988; cited from earlier work.
The subject of data set [6] is IL-10. In words: Renal cortical IL-10 mRNA and protein after N-Mgb, SnPP or both. Format: in vivo, mice. The method, then:
as §1

The subject of the next data set is HO-1 mRNA. Kind of data set: Renal cortical HO-1 mRNA (RT-PCR) after IV myoglobin, SnPP or both. Format: in vivo, mice. As to conditions: 4 hrs post IV injection. The text has this: (§2) The Glycerol Model of AKI. This is a widely used model of rhabdomyolysis-induced AKI that has been employed worldwide for 50 years. The model was used to test whether prophylactic interventions confer protection against AKI. Basically, the protocol is as follows: Male CD-1 mice (35-45 grams), obtained from Charles River Laboratories, Wilmington, Mass. were studied. Mice were maintained under standard vivarium conditions and generally housed for 1-3 weeks prior to study. The mice were placed in a cylindrical restraining cage, and then were given a tail vein injection of the test substances (see below) or test substance vehicle. The mice were then returned to their cages. Eighteen hours (hrs) later, the mice were briefly anesthetized by isoflurane inhalation, and given an intramuscular injection of hypertonic (50%) glycerol in a dose of 9 ml/Kg body weight. The dose is divided in two, with half injected into the muscle of each of the hind limbs. The mice were then returned to their cages. Eighteen hrs later, the mice were deeply anesthetized with pentobarbital (50-100 mg/Kg), the abdominal cavity was opened through a midline abdominal incision, a blood sample was obtained from the abdominal vena cava and the kidneys were resected. A kidney cross section was obtained and fixed in formalin for subsequent histologic analysis. The terminal blood samples were analyzed for BUN and creatinine, using commercially available assay kits. The remaining kidney tissue was subjected to cortical dissection, and the cortical tissues were then extracted for protein and RNA. The protein samples were saved for analysis of HO-1 levels, and the RNA samples were subjected to RT-PCR to quantify HO-1 mRNA as well as levels of other stress gene mRNAs (e.g. NGAL, haptoglobin, hemopexin, hepicidin).
(§3) Myoglobin+SnPP: To 5 mg of dry myoglobin was added 0.9 ml of PBS+0.1 ml of a stock SnPP solution (50 umole/ml). The resulting final concentrations were 5 mg/ml myoglobin+5 umoles/ml of SnPP. The tail vein was injected with 200 ul of this solution, which equals 1 mg myoglobin+1 umole SnPP. […]
Four hr post myoglobin vs myoglobin+SnPP vs SnPP alone experiments. To confirm that the myoglobin+SnPP has a synergistic effect in inducing HO-1 mRNA and HO-1 protein levels, each of the above combinations have been administered alone via tail vein injection. Four hrs later, the mice were sacrificed as noted above and the kidneys were harvested for assessment of HO-1 mRNA and protein levels. For additional information regarding methods, see Zager et al., Am J Physiol Renal Physiol. 2014 Jul. 30. Pii.

The subject of another data set is HO-1. Kind of data set: Renal cortical HO-1 protein (ELISA) after IV myoglobin, SnPP or both. It is filed as in vivo, mice. As to conditions: Cortex, 4 hr IV, 1 mg Myoglobin, 1 μmole SnPP.
Excerpt: as §2, §3
Four hr post myoglobin vs myoglobin+SnPP vs SnPP alone experiments. To confirm that the myoglobin+SnPP has a synergistic effect in inducing HO-1 mRNA and HO-1 protein levels, each of the above combinations have been administered alone via tail vein injection. […] For additional information regarding methods, see Zager et al., Am J Physiol Renal Physiol. 2014 Jul. 30. Pii.
For orientation: An ELISA detects its analyte on a solid surface through an enzyme-linked reagent.

Consider one molecule from patent US9844563B2, “Compositions, kits, and methods to induce acquired cytoresistance using stress protein inducers” (FRED HUTCHINSON CANCER RESEARCH CENTER, priority 2014, dated 2017).

Several values for one entry are separate records, joined by “and”; a condition that tells them apart may be missing. Equal entries are not always repeated.

In general, half-life refers to the time in which the quantity being followed falls by half. Regarding `C=Cc1c2[n-]c(c1C)/C=c1\[n-]/c(c(C)c1C=C)=C\c1[n-]c(c(CCC(=O)O)c1C)C=c1[n-]/c(c(C)c1CCC(=O)O)=C\2.[Sn+4]` [SnPP, Sn-protoporphyrin, reference compound], the “Liver mRNA IL-10” value in the data set with IL-10 [1] came out at 0.05 ± 0.01. Also, the “Kidney Haptoglobin (protein)” value in the data set with Haptoglobin is listed as 13.1 ± 1.3. Moreover, in [2], the “reduction of Mgb toxicity by SnPP addition” value is ≤ 85%. Moreover, in [3], the “protection against glycerol-induced AKI (BUN/creatinine levels)” value is on record as “virtually no effect”. Also, in data set [4], the tolerability in humans result was “well tolerated in humans”. Moreover, the half-life in [5] was 2 to 4 h. For the same molecule, the “increase in renal IL-10 mRNA” value in the data set on IL-10 [6] (4 hours after injection) was “either minimal or no impact”. Besides, in the data set on IL-10 [6] (18 hours after injection), the “increase in renal IL-10 protein” value is recorded as “absence of IL-10 protein increases”. Further, the “Kidney IL-10 (protein)” value in the data set with IL-10 [6] (renal cortex, 4 h after Rx treatment) is reported as 550 ± 86. Besides, the “HO-1 mRNA induction (HO-1/GAPDH mRNA), Average” value with HO-1 mRNA (average) worked out at 6.94 HO-1/GAPDH mRNA. For the same molecule, the “HO-1 mRNA induction (HO-1/GAPDH mRNA), individual mice” value in the data set with HO-1 mRNA (single animals) was 9.72 HO-1/GAPDH mRNA and 8.25 HO-1/GAPDH mRNA and 6.95 HO-1/GAPDH mRNA and 2.85 HO-1/GAPDH mRNA. Further, in the data set on HO-1 (average), the “HO-1 Protein Expression (by ELISA), Average” value was determined as 34.4 ng HO-1/mg protein. Also, the “HO-1 Protein Expression (by ELISA), individual mice” value in the data set with HO-1 (single animals) was 32.2 ng HO-1/mg protein and 31.5 ng HO-1/mg protein and 20.5 ng HO-1/mg protein and 53.6 ng HO-1/mg protein.
